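Five concentrations, 48 hours, 96-well plates. TGI denotes the concentration required for complete inhibition of growth.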
How the values were obtained:
Experiment in all cases: inhibition of tumour cell growth, NCI panel, 48 h
MDA-MB-435 = system: MDA-MB-435
SK-OV-3 ovarian = system: SK-OV-3 ovarian
CAKI-1 renal = system: CAKI-1 renal
SF-539 CNS = system: SF-539 CNS
PC-3 prostate = system: PC-3 prostate
SK-MEL-2 melanoma = system: SK-MEL-2 melanoma
BT-549 breast = system: BT-549 breast
OVCAR-8 ovarian = system: OVCAR-8 ovarian
M14 melanoma = system: M14 melanoma
MCF7 breast = system: MCF7 breast
EKVX NSCLC = system: EKVX NSCLC
MOLT-4 leukemia = system: MOLT-4 leukemia
786-0 renal = system: 786-0 renal
IGROV1 ovarian = system: IGROV1 ovarian
RPMI-8226 leukemia = system: RPMI-8226 leukemia
NCI-H460 lung = system: NCI-H460 lung
T-47D breast = system: T-47D breast
K-562 leukemia = system: K-562 leukemia
UO-31 renal = system: UO-31 renal
COLO 205 colon = system: COLO 205 colon
HCT-15 colon = system: HCT-15 colon
MDA-MB-231 breast = system: MDA-MB-231 breast
HL-60(TB) leukemia = system: HL-60(TB) leukemia
OVCAR-5 ovarian = system: OVCAR-5 ovarian
SF-295 CNS = system: SF-295 CNS
MDA-N = system: MDA-N
TK-10 renal = system: TK-10 renal
U251 CNS = system: U251 CNS
NCI-H522 lung = system: NCI-H522 lung
OVCAR-3 ovarian = system: OVCAR-3 ovarian
RXF 393 renal = system: RXF 393 renal
MALME-3M melanoma = system: MALME-3M melanoma
NCI-H23 lung = system: NCI-H23 lung
SNB-75 CNS = system: SNB-75 CNS
OVCAR-4 ovarian = system: OVCAR-4 ovarian
SW-620 colon = system: SW-620 colon
HT29 colon = system: HT29 colon
HCC-2998 colon = system: HCC-2998 colon
SN12C renal = system: SN12C renal
SR leukemia = system: SR leukemia
HCT-116 colon = system: HCT-116 colon
ACHN renal = system: ACHN renal
NCI-H226 lung = system: NCI-H226 lung
SF-268 CNS = system: SF-268 CNS
HOP-62 NSCLC = system: HOP-62 NSCLC
HOP-92 NSCLC = system: HOP-92 NSCLC
NCI/ADR-RES ovarian = system: NCI/ADR-RES ovarian
UACC-257 melanoma = system: UACC-257 melanoma
HS 578T breast = system: HS 578T breast
DU-145 prostate = system: DU-145 prostate
A549 NSCLC = system: A549 NSCLC
LOX IMVI melanoma = system: LOX IMVI melanoma
CCRF-CEM leukemia = system: CCRF-CEM leukemia
KM12 colon = system: KM12 colon
SK-MEL-28 melanoma = system: SK-MEL-28 melanoma
SNB-19 CNS = system: SNB-19 CNS
A498 renal = system: A498 renal
SK-MEL-5 melanoma = system: SK-MEL-5 melanoma
UACC-62 melanoma = system: UACC-62 melanoma

COc1cc2c(cc1O)[C@@H]1Cc3c(cc(OC)c(OC)c3Oc3cc4c(cc3OC)CCN(C)[C@@H]4Cc3ccc(O)cc3)[C@H](C2)N1C
TGI (MDA-MB-435): 40.8 µM
TGI (SK-OV-3 ovarian): > 100 µM
TGI (CAKI-1 renal): > 100 µM
TGI (SF-539 CNS): 65.2 µM
TGI (PC-3 prostate): > 100 µM
TGI (SK-MEL-2 melanoma): 53.3 µM
TGI (BT-549 breast): 96.9 µM
TGI (OVCAR-8 ovarian): > 100 µM
TGI (M14 melanoma): 33.9 µM
TGI (MCF7 breast): > 100 µM
TGI (EKVX NSCLC): > 100 µM
TGI (MOLT-4 leukemia): > 90.5 µM
TGI (786-0 renal): > 100 µM
TGI (IGROV1 ovarian): > 100 µM
TGI (RPMI-8226 leukemia): > 79.6 µM
TGI (NCI-H460 lung): > 100 µM
TGI (T-47D breast): > 100 µM
TGI (K-562 leukemia): 45.8 µM
TGI (UO-31 renal): > 100 µM
TGI (COLO 205 colon): 38.2 µM
TGI (HCT-15 colon): > 100 µM
TGI (MDA-MB-231 breast): 98.2 µM
TGI (HL-60(TB) leukemia): 36.6 µM
TGI (OVCAR-5 ovarian): > 100 µM
TGI (SF-295 CNS): > 100 µM
TGI (MDA-N): 38.3 µM
TGI (TK-10 renal): > 100 µM
TGI (U251 CNS): > 100 µM
TGI (NCI-H522 lung): 67 µM
TGI (OVCAR-3 ovarian): > 100 µM
TGI (RXF 393 renal): 37.4 µM
TGI (MALME-3M melanoma): 32.2 µM
TGI (NCI-H23 lung): > 100 µM
TGI (SNB-75 CNS): > 80 µM
TGI (OVCAR-4 ovarian): > 100 µM
TGI (SW-620 colon): > 100 µM
TGI (HT29 colon): > 100 µM
TGI (HCC-2998 colon): > 72 µM
TGI (SN12C renal): > 100 µM
TGI (SR leukemia): 19.3 µM
TGI (HCT-116 colon): > 100 µM
TGI (ACHN renal): > 100 µM
TGI (NCI-H226 lung): > 100 µM
TGI (SF-268 CNS): > 100 µM
TGI (HOP-62 NSCLC): > 100 µM
TGI (HOP-92 NSCLC): > 100 µM
TGI (NCI/ADR-RES ovarian): > 100 µM
TGI (UACC-257 melanoma): 44.6 µM
TGI (HS 578T breast): > 100 µM
TGI (DU-145 prostate): > 100 µM
TGI (A549 NSCLC): > 100 µM
TGI (LOX IMVI melanoma): 37.7 µM
TGI (CCRF-CEM leukemia): > 72.1 µM
TGI (KM12 colon): > 100 µM
TGI (SK-MEL-28 melanoma): 34.9 µM
TGI (SNB-19 CNS): > 100 µM
TGI (A498 renal): 80.4 µM
TGI (SK-MEL-5 melanoma): 30.1 µM
TGI (UACC-62 melanoma): > 100 µM

NC(=O)NC(=O)c1cccc(NC(=O)CBr)c1
TGI (MDA-MB-435): < 0.0358 µM
TGI (SK-OV-3 ovarian): 0.963 µM
TGI (CAKI-1 renal): 0.321 µM
TGI (PC-3 prostate): 1.49 µM
TGI (SK-MEL-2 melanoma): 1.59 µM
TGI (BT-549 breast): 1.43 µM
TGI (M14 melanoma): 0.549 µM
TGI (MCF7 breast): 1.61 µM
TGI (EKVX NSCLC): 6.8 µM
TGI (786-0 renal): < 0.0333 µM
TGI (IGROV1 ovarian): 0.368 µM
TGI (RPMI-8226 leukemia): 0.306 µM
TGI (NCI-H460 lung): 0.166 µM
TGI (T-47D breast): 3.7 µM
TGI (K-562 leukemia): 1.49 µM
TGI (UO-31 renal): 1.68 µM
TGI (COLO 205 colon): < 0.01 µM
TGI (HCT-15 colon): 0.384 µM
TGI (MDA-MB-231 breast): 0.951 µM
TGI (HL-60(TB) leukemia): < 0.0207 µM
TGI (OVCAR-5 ovarian): 1.89 µM
TGI (SF-295 CNS): 2.7 µM
TGI (MDA-N): < 0.0226 µM
TGI (TK-10 renal): 0.281 µM
TGI (U251 CNS): 0.0582 µM
TGI (NCI-H522 lung): < 0.01 µM
TGI (OVCAR-3 ovarian): 0.024 µM
TGI (RXF 393 renal): 1.38 µM
TGI (MALME-3M melanoma): 0.746 µM
TGI (NCI-H23 lung): 1.54 µM
TGI (SNB-75 CNS): 1.69 µM
TGI (OVCAR-4 ovarian): 3.11 µM
TGI (SW-620 colon): 3.3 µM
TGI (HT29 colon): < 0.0291 µM
TGI (SN12C renal): 0.391 µM
TGI (SR leukemia): 0.152 µM
TGI (HCT-116 colon): < 0.01 µM
TGI (ACHN renal): 1.4 µM
TGI (NCI-H226 lung): 0.067 µM
TGI (SF-268 CNS): < 0.0275 µM
TGI (HOP-62 NSCLC): 1.29 µM
TGI (HOP-92 NSCLC): 1.75 µM
TGI (NCI/ADR-RES ovarian): 0.799 µM
TGI (UACC-257 melanoma): 0.623 µM
TGI (HS 578T breast): < 0.0505 µM
TGI (DU-145 prostate): 0.336 µM
TGI (A549 NSCLC): 7.6 µM
TGI (LOX IMVI melanoma): 0.193 µM
TGI (KM12 colon): 14.4 µM
TGI (SK-MEL-28 melanoma): 7.47 µM
TGI (SNB-19 CNS): 13.1 µM
TGI (A498 renal): 0.532 µM
TGI (SK-MEL-5 melanoma): < 0.0184 µM
TGI (UACC-62 melanoma): 0.908 µM
